Test results published in ChEMBL document CHEMBL1201862, “PubChem BioAssay data set” (2004).
Structures can show the parent of a compound that is named as a salt. The source made the active and inactive calls.

Legend:
[1] = viability of uninfected HEp-2 cells – cell-based, HTS, cytotoxicity control for RSV inhibitor project, dose response (AID 2410); format: functional; conditions: human respiratory syncytial virus
[2] = Counterscreen for IDE inhibitors: Luminescence-based cell-based high throughput dose response assay to identify compounds that are cytotoxic to HEK cells. [Related pubchem assays: 434962 (Primary screen (IDE inhibitors in singlicate)), 449730 (Counterscreen (Cytotoxicity in triplicate)), 435028 (Confirmation (IDE inhibitors in triplicate)) …; format: functional; conditions: HEK293
Insulin-degrading enzyme = molecular target: T1, Insulin-degrading enzyme (Homo sapiens, UniProt P14735); assay: Dose Response: Fluorescence polarization-based cell-based high throughput dose response assay for inhibitors of insulin-degrading enzyme (IDE). [Related pubchem assays: 434962 (Primary screen (IDE inhibitors in singlicate)), 449730 (Counterscreen (Cytotoxicity in triplicate)), 435028 (Confirmation (IDE inhibitors in triplicate)), 434984 (Summary …; format: functional
T1 sequence (P14735 whole entry): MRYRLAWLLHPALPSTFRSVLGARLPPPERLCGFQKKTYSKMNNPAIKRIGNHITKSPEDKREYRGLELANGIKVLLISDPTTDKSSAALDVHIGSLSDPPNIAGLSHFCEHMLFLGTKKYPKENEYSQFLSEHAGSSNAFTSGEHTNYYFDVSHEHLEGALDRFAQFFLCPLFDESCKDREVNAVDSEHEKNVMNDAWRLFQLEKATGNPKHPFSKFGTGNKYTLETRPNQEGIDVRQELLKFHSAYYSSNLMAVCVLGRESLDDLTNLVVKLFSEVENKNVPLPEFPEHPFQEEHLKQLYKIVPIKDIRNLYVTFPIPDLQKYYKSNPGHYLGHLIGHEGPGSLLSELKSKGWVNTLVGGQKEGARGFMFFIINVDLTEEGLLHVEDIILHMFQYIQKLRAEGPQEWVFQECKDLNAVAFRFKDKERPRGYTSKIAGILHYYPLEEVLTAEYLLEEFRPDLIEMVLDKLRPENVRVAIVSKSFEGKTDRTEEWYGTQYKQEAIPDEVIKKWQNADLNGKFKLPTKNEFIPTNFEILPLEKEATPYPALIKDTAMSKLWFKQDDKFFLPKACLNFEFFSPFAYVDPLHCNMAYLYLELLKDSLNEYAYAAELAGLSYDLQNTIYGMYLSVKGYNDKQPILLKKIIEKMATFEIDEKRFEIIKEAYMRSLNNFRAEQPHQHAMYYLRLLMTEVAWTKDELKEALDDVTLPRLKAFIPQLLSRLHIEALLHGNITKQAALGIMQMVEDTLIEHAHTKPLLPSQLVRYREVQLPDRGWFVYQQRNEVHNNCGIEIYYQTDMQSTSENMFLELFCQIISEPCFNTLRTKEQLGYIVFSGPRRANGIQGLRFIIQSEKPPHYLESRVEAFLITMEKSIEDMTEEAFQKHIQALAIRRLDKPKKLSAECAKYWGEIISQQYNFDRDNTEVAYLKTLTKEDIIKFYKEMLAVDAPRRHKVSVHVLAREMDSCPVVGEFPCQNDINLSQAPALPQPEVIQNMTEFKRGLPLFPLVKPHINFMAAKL

[3] = molecular target: Neuropeptide Y receptor type 1 (Homo sapiens, UniProt P25929); format: functional;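 also: HEK293 cells with a CNG channel challenged with NPY then isoproterenol; potency as antagonist that reverses NPY suppression of cAMP signal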
Sequence of Neuropeptide Y receptor type 1 (P25929 whole entry): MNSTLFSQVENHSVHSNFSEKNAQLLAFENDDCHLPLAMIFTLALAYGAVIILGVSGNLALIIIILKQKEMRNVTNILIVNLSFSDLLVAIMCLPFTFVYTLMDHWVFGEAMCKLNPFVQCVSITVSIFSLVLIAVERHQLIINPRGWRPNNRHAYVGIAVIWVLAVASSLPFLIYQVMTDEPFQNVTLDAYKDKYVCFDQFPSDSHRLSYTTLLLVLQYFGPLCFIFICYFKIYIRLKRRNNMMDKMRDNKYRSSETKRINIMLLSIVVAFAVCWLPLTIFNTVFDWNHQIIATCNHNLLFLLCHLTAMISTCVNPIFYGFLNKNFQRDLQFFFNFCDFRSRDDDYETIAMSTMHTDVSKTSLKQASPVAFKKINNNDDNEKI

[4] = molecular target: Neuropeptide Y receptor type 2 (Homo sapiens, UniProt P49146); format: functional, cell-based;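 also: HEK293 cells expressing the receptor and a CNG channel; stimulus was NPY near EC95 followed by isoproterenol to raise cAMP; antagonist potency measured as restoring cAMP signal that NPY suppresses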
Sequence of Neuropeptide Y receptor type 2 (P49146 whole entry): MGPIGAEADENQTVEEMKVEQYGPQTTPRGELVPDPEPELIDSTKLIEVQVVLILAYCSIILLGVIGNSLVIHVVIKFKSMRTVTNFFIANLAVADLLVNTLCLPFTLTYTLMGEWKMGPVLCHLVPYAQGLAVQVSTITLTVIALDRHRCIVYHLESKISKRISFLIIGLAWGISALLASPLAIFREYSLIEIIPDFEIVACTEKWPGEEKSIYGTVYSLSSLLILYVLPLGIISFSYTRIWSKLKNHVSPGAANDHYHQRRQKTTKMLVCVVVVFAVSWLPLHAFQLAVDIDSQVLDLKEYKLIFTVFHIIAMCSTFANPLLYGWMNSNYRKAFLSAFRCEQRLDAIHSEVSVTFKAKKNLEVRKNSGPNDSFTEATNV

BJ [5] = assay: BJ-TERT-LT-ST fibroblast viability loss – cell-based, RAS-independent, luminescence, dose response (AID 1935); format: functional; conditions: Homo sapiens;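 also: BJ fibroblasts immortalized with TERT plus LT and ST oncogenes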
[6] = alpha-synuclein stem-loop luciferase translation blockers – H4 neuroglioma cells, luminescence, confirmation (AID 1988); format: functional, cell-based
BJ [7] = assay: cells; format: functional, cell-based; conditions: Homo sapiens
BJ [8] = assay: BJ-TERT fibroblast viability loss – cell-based, RAS-independent, luminescence, dose response (AID 1933); format: functional; conditions: Homo sapiens
[9] = luciferase reporter signal suppression in cells – H4 neuroglioma cells, luminescence, dose response (AID 1990); format: functional, cell-based
[10] = DRD fibroblast viability loss – cell-based, non-viral oncogenic, luminescence, dose response (AID 1934); format: functional; conditions: Homo sapiens
[11] = Luminescence Cell-Based Dose Response HTS to Identify Inhibitors of 5'UTR Stem-Loop Driven Prion Protein mRNA Translation in H4 Neuroglioblastoma Cells. [Related pubchem assays: 1827 (Project Summary), 1813 (Primary HTS)]; format: functional
Danio rerio = assay: In Vivo Angiogenesis Dose-Response Confirmation. [Related pubchem assays: 732 (Assay preceding this confirmatory assay.)]; format: functional, organism-based
[12] = NIH-3T3 fibroblast cytotoxicity, dose response, cytotoxicity control, cell-based, fluorescence, Alamar Blue, secondary assay (AID 2327); format: functional;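 also: NIH-3T3 mouse fibroblasts cultured with fluconazole at 8 µg/mL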
[13] = Counterscreen for AddAB inhibitors: absorbance-based bacterial cell-based high throughput dose response assay for inhibitors of bacterial viability. [Related pubchem assays (depositor defined):AID435030, AID449728, AID449731, AID488942, AID488955, AID488956]; format: functional
BJ [14] = assay: growth inhibition of engineered Ras-driven BJ cells – cell-based, alamar blue fluorescence, cherrypicked samples, dose response (AID 2631); format: functional; conditions: Homo sapiens;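 also: confirmatory dose-response assay in RAS-dependent BJ fibroblasts engineered with TERT, LT and ST, with cytotoxicity read by fluorescence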
Galanin receptor type 2 = Galanin receptor type 2 (Homo sapiens, UniProt O43603); assay: Dose Response cell-based high-throughput screening assay to identify antagonists of galanin receptor 2 (GALR2). [Related pubchem assays: 828, 866 ]; format: functional
Sequence of Galanin receptor type 2 (O43603 whole entry): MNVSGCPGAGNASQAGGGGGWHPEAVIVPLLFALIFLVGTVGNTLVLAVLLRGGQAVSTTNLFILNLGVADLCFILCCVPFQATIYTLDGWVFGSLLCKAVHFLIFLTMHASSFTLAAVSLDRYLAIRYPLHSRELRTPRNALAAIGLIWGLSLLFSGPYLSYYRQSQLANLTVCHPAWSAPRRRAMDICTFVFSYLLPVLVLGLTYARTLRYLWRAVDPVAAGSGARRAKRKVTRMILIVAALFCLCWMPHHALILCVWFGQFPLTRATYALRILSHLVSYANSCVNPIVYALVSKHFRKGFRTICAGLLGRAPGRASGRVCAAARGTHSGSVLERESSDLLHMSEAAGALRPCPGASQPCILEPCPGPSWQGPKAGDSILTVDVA

[15] = molecular target: Heat shock protein HSP 90-alpha (Homo sapiens, UniProt P07900); format: functional, organism-based
Nonstructural protein 1 = Nonstructural protein 1 (Influenza A virus, UniProt Q194T2); format: functional, Influenza A virus (A/California/07/2009(H1N1))
Sequence of Nonstructural protein 1 (Q194T2 whole entry): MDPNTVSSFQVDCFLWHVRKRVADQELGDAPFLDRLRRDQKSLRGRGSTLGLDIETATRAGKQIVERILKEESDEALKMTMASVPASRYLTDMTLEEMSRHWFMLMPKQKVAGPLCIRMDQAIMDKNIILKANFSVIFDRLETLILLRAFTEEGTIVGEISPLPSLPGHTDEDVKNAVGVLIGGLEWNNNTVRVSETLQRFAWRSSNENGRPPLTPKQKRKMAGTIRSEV

Exodeoxyribonuclease V = molecular target: T2, Exodeoxyribonuclease V (Escherichia coli (strain K12), UniProt P04993+P07648+P08394); assay: RecBCD inhibition via phage-restricted bacterial growth – absorbance, V66 E. coli, mutant T4 phage, counter-screen for AddAB inhibitor project, dose response (AID 492957); format: functional, cell-based, Escherichia coli str. K-12 substr. MG1655
T2 sequence (P04993 whole entry): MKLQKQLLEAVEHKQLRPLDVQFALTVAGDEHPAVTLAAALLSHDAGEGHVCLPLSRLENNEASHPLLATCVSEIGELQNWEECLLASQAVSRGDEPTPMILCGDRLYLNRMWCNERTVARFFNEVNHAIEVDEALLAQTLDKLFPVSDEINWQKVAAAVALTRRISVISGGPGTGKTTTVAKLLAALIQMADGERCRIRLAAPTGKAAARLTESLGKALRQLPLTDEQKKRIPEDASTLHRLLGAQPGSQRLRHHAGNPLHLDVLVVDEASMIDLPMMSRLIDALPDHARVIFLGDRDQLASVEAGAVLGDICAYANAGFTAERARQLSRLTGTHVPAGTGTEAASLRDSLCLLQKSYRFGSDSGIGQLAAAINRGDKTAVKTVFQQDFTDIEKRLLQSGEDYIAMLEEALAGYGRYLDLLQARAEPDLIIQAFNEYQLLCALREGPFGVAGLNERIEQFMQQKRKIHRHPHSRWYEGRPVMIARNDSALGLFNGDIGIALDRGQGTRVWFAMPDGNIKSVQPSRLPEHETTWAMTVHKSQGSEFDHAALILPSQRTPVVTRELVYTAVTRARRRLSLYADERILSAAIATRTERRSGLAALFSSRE
T2 sequence (P07648 whole entry): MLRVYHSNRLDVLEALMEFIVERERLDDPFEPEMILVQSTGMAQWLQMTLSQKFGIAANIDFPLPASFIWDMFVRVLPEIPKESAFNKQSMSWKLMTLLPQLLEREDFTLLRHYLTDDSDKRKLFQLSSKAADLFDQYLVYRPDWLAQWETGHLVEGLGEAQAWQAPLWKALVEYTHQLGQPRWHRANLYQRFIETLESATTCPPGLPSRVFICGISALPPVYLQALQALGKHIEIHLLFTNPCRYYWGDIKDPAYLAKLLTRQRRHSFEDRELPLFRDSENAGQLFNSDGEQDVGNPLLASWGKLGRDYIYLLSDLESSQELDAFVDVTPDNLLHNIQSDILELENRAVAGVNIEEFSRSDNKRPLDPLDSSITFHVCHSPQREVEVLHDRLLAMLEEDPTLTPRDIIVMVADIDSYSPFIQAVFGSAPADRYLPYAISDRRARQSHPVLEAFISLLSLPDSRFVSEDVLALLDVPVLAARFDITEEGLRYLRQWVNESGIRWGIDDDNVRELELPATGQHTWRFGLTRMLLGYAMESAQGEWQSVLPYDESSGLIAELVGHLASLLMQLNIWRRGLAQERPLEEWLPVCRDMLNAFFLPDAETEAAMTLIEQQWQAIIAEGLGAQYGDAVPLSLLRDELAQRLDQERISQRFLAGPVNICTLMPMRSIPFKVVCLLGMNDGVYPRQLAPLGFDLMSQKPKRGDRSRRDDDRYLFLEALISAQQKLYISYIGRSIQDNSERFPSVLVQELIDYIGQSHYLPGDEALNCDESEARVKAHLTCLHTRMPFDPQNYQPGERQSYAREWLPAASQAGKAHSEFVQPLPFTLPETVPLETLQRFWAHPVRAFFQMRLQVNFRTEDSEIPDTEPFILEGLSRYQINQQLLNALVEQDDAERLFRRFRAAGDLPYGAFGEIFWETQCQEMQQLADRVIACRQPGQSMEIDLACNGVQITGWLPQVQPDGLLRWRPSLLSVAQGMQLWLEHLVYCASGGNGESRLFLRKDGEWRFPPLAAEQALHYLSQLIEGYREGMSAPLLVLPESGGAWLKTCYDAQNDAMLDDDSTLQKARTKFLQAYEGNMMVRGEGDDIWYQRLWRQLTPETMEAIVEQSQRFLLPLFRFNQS
T2 sequence (P08394 whole entry): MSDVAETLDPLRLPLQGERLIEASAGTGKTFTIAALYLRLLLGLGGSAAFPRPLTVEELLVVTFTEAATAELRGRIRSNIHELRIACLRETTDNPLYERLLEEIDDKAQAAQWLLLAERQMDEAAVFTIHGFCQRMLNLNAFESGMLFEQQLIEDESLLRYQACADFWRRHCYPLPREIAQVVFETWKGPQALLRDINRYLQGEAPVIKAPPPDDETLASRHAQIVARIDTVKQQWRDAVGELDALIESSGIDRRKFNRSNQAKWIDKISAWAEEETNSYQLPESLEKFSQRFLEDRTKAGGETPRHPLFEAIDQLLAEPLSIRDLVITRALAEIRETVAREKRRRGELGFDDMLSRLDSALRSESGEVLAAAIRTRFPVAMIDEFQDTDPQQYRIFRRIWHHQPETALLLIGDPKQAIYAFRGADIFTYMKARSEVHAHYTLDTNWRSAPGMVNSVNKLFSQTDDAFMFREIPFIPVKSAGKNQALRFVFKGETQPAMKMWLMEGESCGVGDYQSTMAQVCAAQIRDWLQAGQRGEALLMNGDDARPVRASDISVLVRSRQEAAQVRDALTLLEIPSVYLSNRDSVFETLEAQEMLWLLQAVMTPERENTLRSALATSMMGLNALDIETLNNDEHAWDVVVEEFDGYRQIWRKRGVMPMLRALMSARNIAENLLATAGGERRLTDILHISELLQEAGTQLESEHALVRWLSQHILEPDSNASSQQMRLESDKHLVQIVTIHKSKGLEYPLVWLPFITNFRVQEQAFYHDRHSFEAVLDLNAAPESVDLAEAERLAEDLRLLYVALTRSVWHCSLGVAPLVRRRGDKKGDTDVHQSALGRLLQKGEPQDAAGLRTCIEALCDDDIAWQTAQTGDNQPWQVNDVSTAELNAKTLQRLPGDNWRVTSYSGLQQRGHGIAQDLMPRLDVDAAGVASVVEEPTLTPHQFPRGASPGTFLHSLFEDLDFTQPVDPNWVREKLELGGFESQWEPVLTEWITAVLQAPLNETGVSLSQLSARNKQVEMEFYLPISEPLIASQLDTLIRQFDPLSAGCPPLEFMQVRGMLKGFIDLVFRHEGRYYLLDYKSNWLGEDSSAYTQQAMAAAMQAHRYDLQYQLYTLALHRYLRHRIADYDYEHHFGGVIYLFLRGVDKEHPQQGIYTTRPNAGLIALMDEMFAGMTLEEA

With `Cc1ccc(NC2=NC(=O)/C(=C/c3cn(C)c4ccccc34)S2)cc1C` the CC50 [1] was 6.5 µM (active), the IC50 [2] was 16.5 µM (not active) and the IC50 (Insulin-degrading enzyme) was 18.4 µM (not active).

For `CN(C)C(=O)C(CCN1CCC(O)(c2ccc(Cl)cc2)CC1)(c1ccccc1)c1ccccc1` [LOPERAMIDE HYDROCHLORIDE], the IC50 [3] was > 35 µM (not active) and the IC50 [4] was > 35 µM (not active).

With `c1cnc2c(c1)ccc1cccnc12` [PHENANTHROLINE] the EC50 (BJ [5]) was 7.62 µM (inconclusive), the EC50 [6] was 7.02 µM (active) and the EC50 (BJ [7]) was 8.88 µM (inconclusive). The EC50 (BJ [8]) was 5.03 µM (active), the EC50 [9] was 6.95 µM (active) and the EC50 [10] was 16.4 µM (active). The EC50 [11] was 5.66 µM (active), the IC50 (Danio rerio) was 7.51 µM (active) and the EC50 [12] was 9.41 µM (inconclusive). For the same molecule, the IC50 [13] was 35.2 µM (inactive), the EC50 (BJ [14]) was 6.14 µM (active) and the IC50 (Galanin receptor type 2) was > 42 µM (not active). The AC50 [15] was 7.11 µM (active), the IC50 (Nonstructural protein 1) was 0.902 µM (active) and the IC50 (Exodeoxyribonuclease V) was 30.5 µM (inactive).
